Measured values from EP0819136B1, “MDP DERIVATIVES AND CONJUGATES HAVING HAEMATOPOIETIC FUNCTION STIMULATING ACTIVITY, AND COMPOSITIONS CONTAINING SAME” (VACSYN S.A., priority 1995, dated 1996).

What was measured:
[1] = tested on: neutrophiles circulants, leucocytes circulants, monocytes circulants, myélocytes circulants; experiment: Comparison of Muradimétide and GM-CSF on circulating cell counts after i.v. AZT (Example 9, figures 4-7); format: in vivo, souris Swiss femelles; settings: AZT 40 mg/kg i.v. days 0-3; Muradimétide 25 mg/kg or mGM-CSF 125 µg/kg i.v. 4 h before AZT
From the text: La figure 4 représente les effets comparés du Muradimétide et du rmGM-CSF (recombinant mouse GM-CSF) sur la numération des neutrophiles circulants après administration d'AZT.
La figure 5 représente la même comparaison sur la numération des leucocytes circulants.
La figure 6 représente la même comparaison sur la numération de monocytes circulants.
La figure 7 représente la même comparaison sur la numération des myélocytes circulants.
Lorsque les souris ayant reçu un traitement par l'AZT sont traitées par du GM-SCF dans les mêmes conditions que celles utilisées pour le Muradimétide, les comptages de leucocytes et de neutrophiles ne présentent pas d'augmentation contrairement à ce qui est observé lorsque la combinaison AZT-Muradimétide est utilisée. Par contre, on observe une augmentation du nombre des monocytes. Les figures 4, 5, 6, et 7 indiquent l'effet d'un traitement des souris avec du Muradimétide ou avec du mGM-CSF sur les changements respectivement dans les neutrophiles circulants, dans les leucocytes circulants ou dans les monocytes circulants ou dans les myélocytes circulants après une administration intraveineuse d'AZT.
Les souris Swiss femelles ont été traitées par voie intra-veineuse avec 40 mg par kg d'AZT aux jours 0, 1, 2 et 3. […]

[2] = tested on: CSH; experiment: CSH mobilisation in cyclophosphamide-treated mice after oral AZT, MDM or both (Example 6, figure 13); format: in vivo, souris; settings: cyclophosphamide 200 mg/kg s.c. day 0; oral MDM 25 mg/kg alone days 0, 1, 2, 3
Procedure: La figure 13 représente une expérience similaire sur des souris normales qui ont préalablement reçu un traitement par une drogue cytotoxique : la cyclophosphamide.
L'effet du traitement ci-dessus pour compenser l'effet cytotoxique des chimiothérapies a été étudié en traitant les souris par le cyclophosphamide.
Les souris traitées par une simple injection sous-cutanée de cyclophosphamide (dose de 200 mg/kg) au jour 0 ont été ensuite divisées entre 4 groupes et ont reçu oralement, outre de l'eau physiologique (X), de l'AZT à 50 mg/kg (□), du MDM à 25 mg/kg (Δ) ou du mélange de ceux-ci (O). Le traitement oral a été effectué aux jours 0, 1, 2 et 3 et les numérations cellulaires ont été évaluées jusqu'à 14 jours après le commencement du traitement. Les résultats sont indiqués dans la figure 13. Là-encore, il apparaît évident qu'une très forte mobilisation a lieu surtout en présence du mélange d'AZT et de MDM.

[3] = tested on: myélocytes circulants; experiment: Circulating myelocytes 24 h after 4 daily oral administrations of AZT and/or Muradimétide (Example 4, Table 3); format: in vivo, souris; settings: for Nbre de myélocytes circulants: 24 h after 4 daily administrations
Procedure: Le tableau 3 ci-dessous et la figure 11 indiquent l'effet d'un traitement per os des souris avec du Muradimétide avant, en même temps ou après l'AZT administré à 50 mg par kg, sur le nombre de myélocytes circulants testés 24 heures après 4 administrations quotidiennes. Tableau 3
Le nombre moyen de myélocytes circulant avant le traitement se situe entre 3 et 15 X 10^4 cellules par ml dans les 5 groupes.
La « P-value » a été calculée par le test Mann Whitney U Rank.
NS signifie que la différence n'est pas significative. Ce tableau confirme que l'augmentation des myélocytes circulants est d'environ 200 quand il y a effet conjoint de l'AZT et du Muradimétide. Les deux constituants de la combinaison ont été administrés per os soit simultanément soit à des temps séparés.

## COC(=O)CC[C@@H](NC(=O)[C@H](C)NC(=O)[C@@H](C)O[C@H]1[C@H](O)[C@@H](CO)OC(O)[C@@H]1NC(C)=O)C(=O)OC (stereo partly drawn) [Muradimétide, Nac-Mur-L-Ala-D-Glu-[OCH3]-OCH3]
[1]
  comptages de leucocytes et de neutrophiles: effet nettement marqué
  élévation / mobilisation des CSH dans le sang (myélocytes circulants): très forte élévation
[2]
  numération des neutrophiles circulants: effet similaire mais nettement moins marqué
[3]; AZT 50mg/Kg p.o. at 0 h + Muradimetide 25mg/Kg p.o. at 0 h
  Nbre de myélocytes circulants: 215 ± 51 x 10^4/ml
[3]; AZT 50mg/Kg p.o. at 0 h + Muradimetide 25mg/Kg p.o. at -4 h
  Nbre de myélocytes circulants: 194 ± 50 x 10^4/ml
[3]; AZT 50mg/Kg p.o. at -4 h + Muradimetide 25mg/Kg p.o. at 0 h
  Nbre de myélocytes circulants: 187 ± 42 x 10^4/ml
[3]; Muradimetide 25mg/Kg p.o. alone at 0 h
  Nbre de myélocytes circulants: 17 ± 15 x 10^4/ml
[3]; joint effect of AZT 50 mg/kg and Muradimétide 25 mg/kg p.o., simultaneously or at separate times
  augmentation des myélocytes circulants: ~200
